Laboratory results published in patent US20260356835A1, “BICYCLIC HETEROARYL COMPOUNDS” (QuantX Biosciences US, Inc., priority 2023, published 2026).

Key:
Kuramochi cells = assay: Cellular Viability Assay (5 day Kuramochi cell viability, CellTiter-Glo); assay type: cell-based; conditions: 5 days, 37 °C, growth inhibition relative to Day 0 (T0) and DMSO
Description: Kuramochi cells were seeded at a density of 1000 cells per well in a 384-well, white, sterile, clear bottom plate, using a Multidrop liquid dispenser and incubated for 24 hours at 37 °C in a 5% CO2 humidified environment. 24 hours later, compounds were added starting at a top dose of 10 μM for a 9-point dose response curve at a 1:3 dilution using an iDOT HT liquid handler and incubated for 5 days at 37 °C in a 5% CO2 humidified environment. After 5 days and at Day 0, plates were incubated at room temperature for 30 minutes followed by the addition of 30 μl of CellTiter-Glo Reagent. Plates were then mixed for 10 minutes on an orbital shaker followed by incubation at room temperature for 20 minutes. Luminescence was then read using the Envision plate reader. Percent Growth Inhibition was then calculated using the following equation: Percent Growth Inhibition normalized=100−(compound signal−T0)/(max signal−T0)*100%, where Max Signal refers to the DMSO only treated cells and T0 refers to the Day0 viability measurement. Growth Inhibition 50 was then calculated using the following equation: Y=Bottom+(Top−Bottom)/(1+10^((Log IC50−X)*hillslope)).
For cell activity, bracket is denoted as: A<1 uM; 1 uM<B<5 uM; C>5 uM.

[1] = target: T1, N-his8-TEV-hPARG (389-976) (Homo sapiens, UniProt Q86W56); assay: PARG Biochemical Enzymatic Assay (PARG inhibition HTRF assay); conditions: 62.5 pM PARG, 5 nM Biotin-Parylated PARP1 substrate, 60 minutes preincubation, 10 minutes reaction at 23 °C
T1 construct: N-his8-TEV-hPARG (389-976); His8 (N); TEV protease cleavage site (N); made in house; host or cells: E. coli BL21(DE3)
Description: PARG Biochemical Enzymatic Assay
TEV-His8-PolyADP-Ribose Polymerase 1 (379-1014) (PARP1) and N-his8-TEV-hPARG (389-976) were used to transform BL21(DE3) competent cells followed by growth for 1 hour at 37 °C and plating on Kanamycin resistant agar plates. A single colony was then inoculated into 1 ml of Luria Broth and expansion into a 1 liter scale for growth at 37 °C for 3 hours. Expression was induced via 0.2 mM IPTG induction for 20 hours at 16 °C in BL21(DE3) E. coli. Purification was then performed using a Nickel column, size exclusion chromatography and HPLC analysis.
For substrate preparation, […] nicked DNA and 2 μM PARP1 protein were mixed for 10 minutes at 25 °C 10 μM biotin-NAD+ and 100 μM NAD+ were then added and incubated for 60 minutes at 30 °C to yield PARylated PARP1 substrate.
For compound screening, compounds were serially diluted to a 3× final concentration in assay buffer (Tris pH7.5 50 mM, KCl 50 mM, Tween-20 0.01%, BSA 0.1 mg/ml, EDTA 3 mM, EGTA 0.4 mM, DTT 1 mM) containing 1% DMSO. A top concentration of 1.5 μM for a 10-point dose response curve using a 1:3 dilution curve was used. 2.5×PARG (156.25 pM working concentration, 62.5 pM final concentration) was prepared in assay buffer and 4 ul added to a 384 well assay plate containing 2 μl of serially diluted compound. The plate was then centrifuged for 10 seconds and incubated for 60 minutes at 23 °C. 4 μl of 2.5× Biotin-Parylated PARP1 (12.5 nM working concentration, 5 nM final concentration) was then added to the plate and incubated for 10 minutes at 23 °C. 4 μl of […] Detection reagent containing 0.44 μg/ml of Streptavidin-Europium cryptate and 4 μg/ml of anti-6His-XL665 monoclonal antibody was added to the plate and incubated for 60 minutes at 23 °C. The Homogeneous Time Resolved Fluorescent (HTRF) signal was then measured on an Envision plate reader using and excitation wavelength of 337 nm and emission wavelengths of 615 nm and 665 nm. Normalized percent inhibition was then calculated using the following equation: % Inhibition normalized=(compound signal-min signal)/(max signal-min signal)*100%, where Maximum signal was substrate only wells and Minimum signal was enzyme and substrate well. IC50 was calculated by fitting % Inhibition values and log of compound concentrations to nonlinear regression (log(inhibitor) vs. response—Variable slope(four parameters)) with GraphPad 9.4.1
For biochemical activity, bracket is denoted as: A<100 nM; 100 nM<B<500 nM; C>500 nM

T1 sequence (Q86W56 389-976): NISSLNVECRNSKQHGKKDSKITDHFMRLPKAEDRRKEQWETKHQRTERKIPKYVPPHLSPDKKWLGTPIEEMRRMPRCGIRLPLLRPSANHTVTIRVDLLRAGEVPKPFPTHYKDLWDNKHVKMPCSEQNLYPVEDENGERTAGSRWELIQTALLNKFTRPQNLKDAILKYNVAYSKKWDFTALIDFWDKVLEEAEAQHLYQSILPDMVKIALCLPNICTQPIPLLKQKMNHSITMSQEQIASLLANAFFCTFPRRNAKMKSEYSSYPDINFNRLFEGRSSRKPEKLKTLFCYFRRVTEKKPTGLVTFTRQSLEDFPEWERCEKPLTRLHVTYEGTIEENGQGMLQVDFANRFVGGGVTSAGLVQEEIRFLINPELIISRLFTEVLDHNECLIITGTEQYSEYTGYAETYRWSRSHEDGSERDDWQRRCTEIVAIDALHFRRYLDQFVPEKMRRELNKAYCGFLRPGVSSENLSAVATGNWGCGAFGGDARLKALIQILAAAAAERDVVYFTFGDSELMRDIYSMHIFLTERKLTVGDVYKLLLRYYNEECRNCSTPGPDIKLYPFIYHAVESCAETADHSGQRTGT

Row | Structure (SMILES) | IC50 (Kuramochi cells) [nM] | IC50 [1] [nM]
1 | C#CC1(NS(=O)(=O)c2cc(N3CCC4(CC3)COC4)n3ncc(-c4nnc(C(F)F)s4)c3c2)CC1 [Example 4, 3-(5-(difluoromethyl)-1,3,4-thiadiazol-2-yl)-N-(1-ethynylcyclopropyl)-7-(2-oxa-7-azaspiro[3.5]nonan-7-yl)pyrazolo[1,5-a]pyridine-5-sulfonamide] | < 1000 | < 100
2 | O=S(=O)(NC1(C(F)F)CC1)c1cc(N2CCC3(CC2)COC3)c2nnc(-c3nnc(C(F)F)s3)n2c1 [Example 40, 3-(5-(Difluoromethyl)-1,3,4-thiadiazol-2-yl)-N-(1-(difluoromethyl)cyclopropyl)-8-(2-oxa-7-azaspiro[3.5]nonan-7-yl)-[1,2,4]triazolo[4,3-a]pyridine-6-sulfonamide] | < 1000 | < 100
3 | CC1(NS(=O)(=O)c2cc(N3CCC4(CC3)COC4)n3ncc(-c4nnc(C(F)F)s4)c3c2)CC1 [Example 1, 3-(5-(difluoromethyl)-1,3,4-thiadiazol-2-yl)-N-(1-methylcyclopropyl)-7-(2-oxa-7-azaspiro[3.5]nonan-7-yl)pyrazolo[1,5-a]pyridine-5-sulfonamide] | < 1000 | < 100
4 | N#CC1(NS(=O)(=O)c2cc(N3CCN(C(=O)N4CC[C@H](F)C4)CC3)n3ncc(-c4nnc(C(F)F)s4)c3c2)CC1 [Example 22, (S)-N-(1-cyanocyclopropyl)-3-(5-(difluoromethyl)-1,3,4-thiadiazol-2-yl)-7-(4-(3-fluoropyrrolidine-1-carbonyl)piperazin-1-yl)pyrazolo[1,5-a]pyridine-5-sulfonamide] | < 1000 | < 100
5 | N#CC1(c2nnc(-c3cnn4c(N5CCC6(CC5)COC6)cc(S(=O)(=O)NC5(C(F)F)CC5)cc34)s2)CC1 [Example 23, 3-[5-(1-cyanocyclopropyl)-1,3,4-thiadiazol-2-yl]-N-[1-(difluoromethyl)cyclopropyl]-7-(2-oxa-7-azaspiro[3.5]nonan-7-yl)pyrazolo[1,5-a]pyridine-5-sulfonamide] | < 1000 | < 100
6 | CC1(C(=O)N2CCN(c3cc(S(=O)(=O)NC4(C#N)CC4)cc4c(-c5nnc(C(F)F)s5)cnn34)CC2)CCC1 [Example 19, N-(1-cyanocyclopropyl)-3-[5-(difluoromethyl)-1,3,4-thiadiazol-2-yl]-7-[4-(1-methylcyclobutanecarbonyl)piperazin-1-yl]pyrazolo[1,5-a]pyridine-5-sulfonamide] | < 1000 | < 100
7 | N#CC1(NS(=O)(=O)c2cc(N3CCC4(CC3)COC4)n3ncc(-c4nnc(C(F)F)s4)c3c2)CC1 [Example 2, N-(1-cyanocyclopropyl)-3-(5-(difluoromethyl)-1,3,4-thiadiazol-2-yl)-7-(2-oxa-7-azaspiro[3.5]nonan-7-yl)pyrazolo[1,5-a]pyridine-5-sulfonamide] | < 1000 | < 100
8 | CC(=O)N1CCN(c2cc(S(=O)(=O)NC3(C)CC3)cc3c2cnn3-c2nnc(C3(O)CCC3)s2)CC1 [Example 29, 4-(4-acetylpiperazin-1-yl)-1-[5-(1-hydroxycyclobutyl)-1,3,4-thiadiazol-2-yl]-N-(1-methylcyclopropyl)indazole-6-sulfonamide] | – | 100 to 500
9 | CC(C)OC(=O)N1CCN(c2cc(S(=O)(=O)NC3(C#N)CC3)cc3c(-c4nnc(C(F)F)s4)cnn23)CC1 [Example 17, Isopropyl 4-(5-(N-(1-cyanocyclopropyl)sulfamoyl)-3-(5-(difluoromethyl)-1,3,4-thiadiazol-2-yl)pyrazolo[1,5-a]pyridin-7-yl)piperazine-1-carboxylate] | < 1000 | < 100
10 | Cc1nnc(N2CCN(c3cc(S(=O)(=O)NC4(C#N)CC4)cc4c(-c5nnc(C(F)F)s5)cnn34)CC2)s1 [Example 20, N-(1-cyanocyclopropyl)-3-[5-(difluoromethyl)-1,3,4-thiadiazol-2-yl]-7-[4-(5-methyl-1,3,4-thiadiazol-2-yl)piperazin-1-yl]pyrazolo[1,5-a]pyridine-5-sulfonamide] | < 1000 | < 100
11 | N#CC1(NS(=O)(=O)c2cc(N3CCN(C(=O)C4CC4)CC3)n3ncc(-c4nnc(C(F)F)s4)c3c2)CC1 [Example 3, N-(1-cyanocyclopropyl)-7-[4-(cyclopropanecarbonyl)piperazin-1-yl]-3-[5-(difluoromethyl)-1,3,4-thiadiazol-2-yl]pyrazolo[1,5-a]pyridine-5-sulfonamide] | < 1000 | < 100
12 | C#CC1(NS(=O)(=O)c2cc(N3CCN(C(=O)N4CC[C@H](O)C4)CC3)c3cnn(-c4nnc(C(F)F)s4)c3c2)CC1 [Example 26, 1-[5-(difluoromethyl)-1,3,4-thiadiazol-2-yl]-N-(1-ethynylcyclopropyl)-4-[4-[(3S)-3-hydroxypyrrolidine-1-carbonyl]piperazin-1-yl]indazole-6-sulfonamide] | < 1000 | < 100
13 | Cc1nnc(N2CCN(c3cc(S(=O)(=O)NC4(C#N)CC4)cc4c(-c5nnc(C(F)F)s5)cnn34)CC2)o1 [Example 24, N-(1-cyanocyclopropyl)-3-[5-(difluoromethyl)-1,3,4-thiadiazol-2-yl]-7-[4-(5-methyl-1,3,4-oxadiazol-2-yl)piperazin-1-yl]pyrazolo[1,5-a]pyridine-5-sulfonamide] | < 1000 | < 100
14 | CC(=O)N1CCN(c2cc(S(=O)(=O)NC3(C)CC3)cn3c(-c4nnc(C5(C#N)CC5)s4)cnc23)CC1 [Example 38, 8-(4-acetylpiperazin-1-yl)-3-(5-(1-cyanocyclopropyl)-1,3,4-thiadiazol-2-yl)-N-(1-methylcyclopropyl)imidazo[1,2-a]pyridine-6-sulfonamide] | – | < 100
15 | CC(=O)N1CCN(c2cc(S(=O)(=O)NC3(C)CC3)cc3c2cnn3-c2nc3c(s2)C(C)(O)COC3)CC1 (stereo not drawn) [Example 30, 4-(4-acetylpiperazin-1-yl)-1-(7-hydroxy-7-methyl-6,7-dihydro-4H-pyrano[3,4-d]thiazol-2-yl)-N-(1-methylcyclopropyl)-1H-indazole-6-sulfonamide] | – | > 500
16 | N#CC1(NS(=O)(=O)c2cc3c(-c4nnc(C(F)F)s4)ncn3c(N3CCC4(CC3)COC4)c2F)CC1 [Example 41, N-(1-cyanocyclopropyl)-1-(5-(difluoromethyl)-1,3,4-thiadiazol-2-yl)-6-fluoro-5-(2-oxa-7-azaspiro[3.5]nonan-7-yl)imidazo[1,5-a]pyridine-7-sulfonamide] | – | < 100
17 | CC1(NS(=O)(=O)c2cc(N3CCC4(CC3)COC4)n3ncc(-c4nc(C(F)F)ns4)c3c2)CC1 [Example 25, 3-(3-(difluoromethyl)-1,2,4-thiadiazol-5-yl)-N-(1-methylcyclopropyl)-7-(2-oxa-7-azaspiro[3.5]nonan-7-yl)pyrazolo[1,5-a]pyridine-5-sulfonamide] | – | < 100
18 | O=C(N1CCN(c2cc(S(=O)(=O)NC34CC(C3)C4)cc3c2cnn3-c2nnc(C(F)F)s2)CC1)N1CC[C@H](O)C1 [Example 27, N-(1-bicyclo [1.1.1]pentanyl)-1-[5-(difluoromethyl)-1,3,4-thiadiazol-2-yl]-4-[4-[(3S)-3-hydroxypyrrolidine-1-carbonyl]piperazin-1-yl] indazole-6-sulfonamide] | – | > 500
